Positions of bridges follow the written chain, without caps; N, C: chain ends. Non-standard residues stand in square brackets, D forms with d. Residues, ends and D or L forms follow the SMILES beside them. *: point of attachment. 2Pal = N[C@@H](Cc1ccccn1)C(=O)O; Pent4ynoyl = C#CCCC(=O)*; Pra = C#CC[C@H](N)C(=O)O; Abu = CC[C@H](N)C(=O)O

One experiment deals with hNav1.7 (Homo sapiens, UniProt Q15858). As to the kind of experiment: cell-based. The conditions noted are these: Nav1.7 Use IC50.
Another experiment addresses hNav1.5 (Homo sapiens, UniProt Q14524). As to the kind of experiment: cell-based.

hNav1.5, sequence (Q14524 whole entry, looked up): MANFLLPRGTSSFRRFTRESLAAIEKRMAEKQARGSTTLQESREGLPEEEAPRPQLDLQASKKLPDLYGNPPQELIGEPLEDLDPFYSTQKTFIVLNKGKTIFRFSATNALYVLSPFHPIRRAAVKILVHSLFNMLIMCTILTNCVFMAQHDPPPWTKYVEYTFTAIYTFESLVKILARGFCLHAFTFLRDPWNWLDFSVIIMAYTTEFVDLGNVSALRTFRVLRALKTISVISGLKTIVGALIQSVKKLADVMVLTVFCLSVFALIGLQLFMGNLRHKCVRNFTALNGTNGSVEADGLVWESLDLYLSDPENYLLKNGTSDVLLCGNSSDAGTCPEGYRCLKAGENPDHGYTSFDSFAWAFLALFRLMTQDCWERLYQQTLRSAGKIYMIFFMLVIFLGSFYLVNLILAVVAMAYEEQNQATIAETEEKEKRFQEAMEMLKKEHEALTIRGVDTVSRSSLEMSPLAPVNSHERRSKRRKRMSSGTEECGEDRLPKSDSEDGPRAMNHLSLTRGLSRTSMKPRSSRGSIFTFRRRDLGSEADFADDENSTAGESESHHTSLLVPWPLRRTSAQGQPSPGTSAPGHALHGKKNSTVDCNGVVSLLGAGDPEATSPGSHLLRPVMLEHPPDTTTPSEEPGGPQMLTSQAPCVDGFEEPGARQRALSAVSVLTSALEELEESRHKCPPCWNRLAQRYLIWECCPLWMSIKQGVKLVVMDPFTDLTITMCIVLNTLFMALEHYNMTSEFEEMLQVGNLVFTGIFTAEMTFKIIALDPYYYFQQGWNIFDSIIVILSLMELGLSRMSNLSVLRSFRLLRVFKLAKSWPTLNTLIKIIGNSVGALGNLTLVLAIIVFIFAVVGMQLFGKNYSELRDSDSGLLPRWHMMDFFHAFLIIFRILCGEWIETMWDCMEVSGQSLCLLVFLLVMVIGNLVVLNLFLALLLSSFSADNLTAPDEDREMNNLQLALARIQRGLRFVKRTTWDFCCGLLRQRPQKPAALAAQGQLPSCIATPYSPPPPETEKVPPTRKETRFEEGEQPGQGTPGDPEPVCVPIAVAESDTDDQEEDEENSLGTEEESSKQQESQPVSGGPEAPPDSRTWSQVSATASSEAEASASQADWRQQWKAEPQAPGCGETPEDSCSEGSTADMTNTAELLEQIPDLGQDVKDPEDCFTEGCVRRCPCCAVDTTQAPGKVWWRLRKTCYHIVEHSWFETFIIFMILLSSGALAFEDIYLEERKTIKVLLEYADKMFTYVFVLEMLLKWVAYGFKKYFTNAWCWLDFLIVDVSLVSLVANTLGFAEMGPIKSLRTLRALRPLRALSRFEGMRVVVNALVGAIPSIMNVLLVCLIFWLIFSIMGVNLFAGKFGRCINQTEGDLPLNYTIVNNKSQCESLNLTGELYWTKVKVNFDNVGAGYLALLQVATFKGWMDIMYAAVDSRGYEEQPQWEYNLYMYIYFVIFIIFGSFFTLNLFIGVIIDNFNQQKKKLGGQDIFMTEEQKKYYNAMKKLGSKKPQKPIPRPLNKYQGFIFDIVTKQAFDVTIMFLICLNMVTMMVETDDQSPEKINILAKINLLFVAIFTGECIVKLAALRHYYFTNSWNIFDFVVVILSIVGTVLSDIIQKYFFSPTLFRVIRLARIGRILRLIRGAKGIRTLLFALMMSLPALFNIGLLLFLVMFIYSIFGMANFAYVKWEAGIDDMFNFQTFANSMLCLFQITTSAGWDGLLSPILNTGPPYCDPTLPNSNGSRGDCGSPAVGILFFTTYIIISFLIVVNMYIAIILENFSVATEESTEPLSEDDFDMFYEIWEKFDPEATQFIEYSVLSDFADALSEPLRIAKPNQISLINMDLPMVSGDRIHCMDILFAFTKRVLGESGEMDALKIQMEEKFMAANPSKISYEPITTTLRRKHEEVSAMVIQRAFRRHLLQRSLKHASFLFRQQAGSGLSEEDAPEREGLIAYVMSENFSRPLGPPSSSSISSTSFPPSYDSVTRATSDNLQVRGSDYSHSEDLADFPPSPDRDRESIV
hNav1.7, sequence (Q15858 whole entry, looked up): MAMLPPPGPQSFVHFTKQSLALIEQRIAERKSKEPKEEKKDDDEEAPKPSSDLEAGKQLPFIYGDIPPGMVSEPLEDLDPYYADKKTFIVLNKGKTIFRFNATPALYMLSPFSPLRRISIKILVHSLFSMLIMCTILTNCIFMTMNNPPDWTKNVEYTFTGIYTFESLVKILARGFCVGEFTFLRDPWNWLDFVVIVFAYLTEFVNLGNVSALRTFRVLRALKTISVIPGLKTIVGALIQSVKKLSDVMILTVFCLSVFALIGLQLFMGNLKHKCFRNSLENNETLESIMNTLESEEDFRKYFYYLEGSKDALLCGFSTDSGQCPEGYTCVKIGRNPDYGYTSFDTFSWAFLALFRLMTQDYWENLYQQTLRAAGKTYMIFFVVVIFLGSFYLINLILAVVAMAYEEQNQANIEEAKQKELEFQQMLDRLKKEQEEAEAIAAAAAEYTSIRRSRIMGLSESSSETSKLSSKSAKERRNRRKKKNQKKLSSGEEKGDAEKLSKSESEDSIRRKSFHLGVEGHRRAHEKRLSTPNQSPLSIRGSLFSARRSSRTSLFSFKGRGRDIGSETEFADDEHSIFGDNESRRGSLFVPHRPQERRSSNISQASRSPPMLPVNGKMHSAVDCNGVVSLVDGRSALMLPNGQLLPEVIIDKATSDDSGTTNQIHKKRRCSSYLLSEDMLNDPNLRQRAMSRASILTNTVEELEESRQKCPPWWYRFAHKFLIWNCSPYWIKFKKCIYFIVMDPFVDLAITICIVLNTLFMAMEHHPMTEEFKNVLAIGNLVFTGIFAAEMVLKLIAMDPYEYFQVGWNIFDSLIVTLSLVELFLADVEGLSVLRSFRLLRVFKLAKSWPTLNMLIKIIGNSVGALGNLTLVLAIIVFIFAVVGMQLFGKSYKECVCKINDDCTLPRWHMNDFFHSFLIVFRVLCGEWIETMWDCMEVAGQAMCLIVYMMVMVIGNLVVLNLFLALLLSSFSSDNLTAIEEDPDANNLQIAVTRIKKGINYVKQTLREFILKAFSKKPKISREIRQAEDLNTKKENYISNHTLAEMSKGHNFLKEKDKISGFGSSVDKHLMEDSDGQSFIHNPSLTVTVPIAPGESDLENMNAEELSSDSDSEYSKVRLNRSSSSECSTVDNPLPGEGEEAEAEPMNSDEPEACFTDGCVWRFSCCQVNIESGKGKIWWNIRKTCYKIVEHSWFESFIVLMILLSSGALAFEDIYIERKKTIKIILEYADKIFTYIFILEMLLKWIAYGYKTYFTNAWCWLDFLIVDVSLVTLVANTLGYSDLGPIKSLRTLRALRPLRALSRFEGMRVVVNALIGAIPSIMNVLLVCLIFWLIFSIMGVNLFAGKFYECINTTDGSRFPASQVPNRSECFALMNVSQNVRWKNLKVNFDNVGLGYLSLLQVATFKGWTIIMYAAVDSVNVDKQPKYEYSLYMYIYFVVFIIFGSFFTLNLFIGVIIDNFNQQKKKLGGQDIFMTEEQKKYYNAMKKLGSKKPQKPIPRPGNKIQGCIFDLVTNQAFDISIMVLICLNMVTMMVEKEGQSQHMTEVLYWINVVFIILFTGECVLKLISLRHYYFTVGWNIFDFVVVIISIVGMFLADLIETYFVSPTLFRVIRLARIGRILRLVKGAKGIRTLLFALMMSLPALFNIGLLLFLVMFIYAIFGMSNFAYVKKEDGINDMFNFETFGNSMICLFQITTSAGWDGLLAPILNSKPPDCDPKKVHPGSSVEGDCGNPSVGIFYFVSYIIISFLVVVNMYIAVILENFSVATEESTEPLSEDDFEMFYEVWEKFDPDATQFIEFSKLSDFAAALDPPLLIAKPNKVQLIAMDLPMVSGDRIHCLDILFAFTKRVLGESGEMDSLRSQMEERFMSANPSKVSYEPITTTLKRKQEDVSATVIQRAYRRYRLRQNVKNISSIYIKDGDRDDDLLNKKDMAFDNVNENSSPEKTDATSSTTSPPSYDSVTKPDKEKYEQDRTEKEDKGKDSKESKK

For the compound `CC(C)C[C@@H]1NC(=O)[C@@H](NC(=O)[C@@H](N)CC(=O)O)CSSC[C@@H]2NC(=O)[C@@H]3CSSC[C@@H](C(=O)N[C@@H](CCCCN)C(=O)N[C@@H](Cc4ccc(O)cc4)C(=O)N[C@H](C(=O)N[C@@H](Cc4ccccc4)C(N)=O)C(C)C)NC(=O)[C@H](Cc4c[nH]c5ccccc45)NC(=O)[C@H](CCCCN)NC(=O)[C@H](Cc4c[nH]cn4)NC(=O)[C@H]([C@@H](C)O)NC(=O)[C@H](CCCNC(=N)N)NC(=O)[C@H](CO)NC(=O)[C@H](CSSC[C@H](NC(=O)[C@H](CCCCN)NC(=O)[C@H](CCCNC(=N)N)NC(=O)[C@H](Cc4ccccc4)NC(=O)[C@H](C)NC(=O)CNC1=O)C(=O)N[C@@H](CCC(=O)O)C(=O)N1CCC[C@H]1C(=O)N[C@@H](CC(=O)O)C(=O)N[C@@H](CC(N)=O)C(=O)N[C@@H](CC(=O)O)C(=O)N[C@@H](CCCCN)C(=O)N3)NC(=O)[C@H](C(C)C)NC(=O)[C@H](CC(C)C)NC(=O)[C@H](CC(N)=O)NC(=O)[C@@H]1CCCN1C(=O)[C@H](CCCNC(=N)N)NC2=O` [[Ala5;Phe6;Glu10]GpTx-1(1-34)] (H-DCLGAFRKCEPDNDKCCRPNLVCSRTHKWCKYVF-NH2; disulfide 2-17, 9-23, 16-30), the results for the IC50 on hNav1.7 and on hNav1.5 were 79 nM and greater than 10000 nM, respectively.

As for `CC[C@H](C)[C@@H]1NC(=O)[C@@H]2CSSC[C@@H]3NC(=O)[C@H](C(C)C)NC(=O)[C@H](CC(C)C)NC(=O)[C@H](CC(N)=O)NC(=O)[C@@H]4CCCN4C(=O)[C@H](CCCNC(=N)N)NC(=O)[C@H](CSSC[C@H](NC(=O)[C@@H](N)CC(=O)O)C(=O)N[C@@H](CC(C)C)C(=O)NCC(=O)N[C@@H](C)C(=O)N[C@@H](Cc4ccccc4)C(=O)N[C@@H](CCCNC(=N)N)C(=O)N[C@@H](CCCCN)C(=O)N2)NC(=O)[C@H](CSSC[C@@H](C(=O)N[C@@H](CCCCN)C(=O)N[C@@H](Cc2ccc(O)cc2)C(=O)N[C@H](C(=O)N[C@@H](Cc2ccccc2)C(=O)N[C@@H](Cc2ccccc2)C(=O)O)C(C)C)NC(=O)[C@H](Cc2c[nH]c4ccccc24)NC(=O)[C@H](CCCNC(=N)N)NC(=O)[C@H](Cc2c[nH]cn2)NC(=O)[C@H]([C@@H](C)O)NC(=O)[C@H](CCCNC(=N)N)NC(=O)[C@H](CO)NC3=O)NC(=O)[C@H](CCCCN)NC(=O)[C@H](CC(=O)O)NC(=O)[C@H](CC(N)=O)NC(=O)[C@H](CC(=O)O)NC(=O)[C@@H]2CCCN2C1=O` [Ala5;Phe6;Arg28]GpTx-1(1-34)-Phe-] (H-DCLGAFRKCIPDNDKCCRPNLVCSRTHRWCKYVFF-OH; disulfide 2-17, 9-23, 16-30), the values for the IC50 on hNav1.7 and at hNav1.5 were 116 nM and greater than 10000 nM, respectively.

In the case of `CC[C@H](C)[C@@H]1NC(=O)[C@@H]2CSSC[C@@H]3NC(=O)[C@H](C(C)C)NC(=O)[C@H](CC(C)C)NC(=O)[C@H](CC(N)=O)NC(=O)[C@@H]4CCCN4C(=O)[C@H](CCCNC(=N)N)NC(=O)[C@H](CSSC[C@H](NC(=O)[C@@H](N)CC(=O)O)C(=O)N[C@@H](CC(C)C)C(=O)NCC(=O)N[C@@H](C)C(=O)N[C@@H](CC(C)C)C(=O)N[C@@H](CCCNC(=N)N)C(=O)N[C@@H](CCCCN)C(=O)N2)NC(=O)[C@H](CSSC[C@@H](C(=O)N[C@@H](CCCCN)C(=O)N[C@@H](Cc2ccc(O)cc2)C(=O)N[C@H](C(=O)N[C@@H](Cc2ccccc2)C(N)=O)C(C)C)NC(=O)[C@H](Cc2c[nH]c4ccccc24)NC(=O)[C@H](CCCCN)NC(=O)[C@H](Cc2c[nH]cn2)NC(=O)[C@H]([C@@H](C)O)NC(=O)[C@H](CCCNC(=N)N)NC(=O)[C@H](CO)NC3=O)NC(=O)[C@H](CCCCN)NC(=O)[C@H](CC(=O)O)NC(=O)[C@H](CC(N)=O)NC(=O)[C@H](CCC(=O)O)NC(=O)[C@@H]2CCCN2C1=O` [[Ala5;Leu6;Glu12]GpTx-1(1-34)], the concentration for half-maximal inhibition (IC50) at hNav1.7 is 21 nM; against hNav1.5, greater than 10000 nM.

In the case of `C#CC[C@@H]1NC(=O)[C@H](CC(=O)O)NC(=O)[C@@H]2CCCN2C(=O)[C@H]([C@@H](C)CC)NC(=O)[C@@H]2CSSC[C@@H]3NC(=O)[C@H](C(C)C)NC(=O)[C@H](CC(C)C)NC(=O)[C@H](CC(N)=O)NC(=O)[C@@H]4CCCN4C(=O)[C@H](CCCNC(=N)N)NC(=O)[C@H](CSSC[C@H](NC(=O)[C@@H](N)CC(=O)O)C(=O)N[C@@H](CC(C)C)C(=O)NCC(=O)N[C@@H](C)C(=O)N[C@@H](Cc4ccccc4)C(=O)N[C@@H](CCCNC(=N)N)C(=O)N[C@@H](CCCCN)C(=O)N2)NC(=O)[C@H](CSSC[C@@H](C(=O)N[C@@H](CCCCN)C(=O)N[C@@H](Cc2ccc(O)cc2)C(=O)N[C@H](C(=O)N[C@@H](Cc2ccccc2)C(N)=O)C(C)C)NC(=O)[C@H](Cc2c[nH]c4ccccc24)NC(=O)[C@H](CCCNC(=N)N)NC(=O)[C@H](Cc2c[nH]cn2)NC(=O)[C@H](CC(C)C)NC(=O)[C@H](CCCNC(=N)N)NC(=O)[C@H](CO)NC3=O)NC(=O)[C@H](CCCCN)NC(=O)[C@H](CC(=O)O)NC1=O` (H-DCLGAFRKCIPD[Pra]DKCCRPNLVCSRLHRWCKYVF-NH2; disulfide 2-17, 9-23, 16-30), the results for the IC50 at hNav1.7 and against hNav1.5 were 3 nM and greater than 10000 nM, respectively.

Turning to `CSCC[C@@H]1NC(=O)[C@H](C)NC(=O)CNC(=O)[C@H](CC(C)C)NC(=O)[C@@H](NC(=O)[C@@H](N)CC(=O)O)CSSC[C@@H]2NC(=O)[C@@H]3CSSC[C@@H](C(=O)N[C@@H](CCCCN)C(=O)N[C@@H](Cc4ccc(O)cc4)C(=O)N[C@H](C(=O)N[C@@H](Cc4ccccc4)C(N)=O)C(C)C)NC(=O)[C@H](Cc4c[nH]c5ccccc45)NC(=O)[C@H](CCCCN)NC(=O)[C@H](Cc4c[nH]cn4)NC(=O)[C@H]([C@@H](C)O)NC(=O)[C@H](CCCNC(=N)N)NC(=O)[C@H](CO)NC(=O)[C@H](CSSC[C@H](NC(=O)[C@H](CCCCN)NC(=O)[C@H](CCCNC(=N)N)NC1=O)C(=O)N[C@@H](CC(=O)O)C(=O)N1CCC[C@H]1C(=O)N[C@@H](CCC(=O)O)C(=O)N[C@@H](CC(N)=O)C(=O)N[C@@H](CC(=O)O)C(=O)N[C@@H](CCCCN)C(=O)N3)NC(=O)[C@H](C(C)C)NC(=O)[C@H](CC(C)C)NC(=O)[C@H](CC(N)=O)NC(=O)[C@@H]1CCCN1C(=O)[C@H](CCCNC(=N)N)NC2=O` [[Ala5;Asp10;Glu12]GpTx-1(1-34)] (H-DCLGAMRKCDPENDKCCRPNLVCSRTHKWCKYVF-NH2; disulfide 2-17, 9-23, 16-30), the IC50 at hNav1.7 is 554 nM; on hNav1.5, greater than 10000 nM.

With `CC[C@H](C)[C@@H]1NC(=O)[C@@H]2CSSC[C@@H]3NC(=O)[C@H](C(C)C)NC(=O)[C@H](CC(C)C)NC(=O)[C@H](CC(N)=O)NC(=O)[C@@H]4CCCN4C(=O)[C@H](CCCNC(=N)N)NC(=O)[C@H](CSSC[C@H](NC(=O)[C@@H](N)CC(=O)O)C(=O)N[C@@H](CC(C)C)C(=O)NCC(=O)N[C@@H](C(C)C)C(=O)N[C@@H](CCSC)C(=O)N[C@@H](CCCNC(=N)N)C(=O)N[C@@H](CCCCN)C(=O)N2)NC(=O)[C@H](CSSC[C@@H](C(=O)N[C@@H](CCCCN)C(=O)N[C@@H](Cc2ccc(O)cc2)C(=O)N[C@H](C(=O)N[C@@H](Cc2ccccc2)C(N)=O)C(C)C)NC(=O)[C@H](Cc2c[nH]c4ccccc24)NC(=O)[C@H](CCC(=O)O)NC(=O)[C@H](Cc2c[nH]cn2)NC(=O)[C@H]([C@@H](C)O)NC(=O)[C@H](CCCNC(=N)N)NC(=O)[C@H](CO)NC3=O)NC(=O)[C@H](CCCCN)NC(=O)[C@H](CC(=O)O)NC(=O)[C@H](CC(N)=O)NC(=O)[C@H](CC(=O)O)NC(=O)[C@@H]2CCCN2C1=O` [[Val5;Glu28]GpTx-1(1-34)] (H-DCLGVMRKCIPDNDKCCRPNLVCSRTHEWCKYVF-NH2; disulfide 2-17, 9-23, 16-30), the IC50 against hNav1.7 is 29 nM; on hNav1.5, greater than 10000 nM.

Take `C#CCCC(=O)N[C@@H](CC(=O)O)C(=O)N[C@H]1CSSC[C@@H]2NC(=O)[C@@H]3CSSC[C@@H](C(=O)N[C@@H](CCCCN)C(=O)N[C@@H](Cc4ccc(O)cc4)C(=O)N[C@H](C(=O)N[C@@H](Cc4ccccc4)C(N)=O)C(C)C)NC(=O)[C@H](Cc4c[nH]c5ccccc45)NC(=O)[C@H](CCCNC(=N)N)NC(=O)[C@H](Cc4c[nH]cn4)NC(=O)[C@H]([C@@H](C)O)NC(=O)[C@H](CCCNC(=N)N)NC(=O)[C@H](CO)NC(=O)[C@H](CSSC[C@H](NC(=O)[C@H](CCCCN)NC(=O)[C@H](CCCNC(=N)N)NC(=O)[C@H](Cc4ccccc4)NC(=O)[C@H](C)NC(=O)CNC(=O)[C@H](CC(C)C)NC1=O)C(=O)N[C@@H]([C@@H](C)CC)C(=O)N1CCC[C@H]1C(=O)N[C@@H](CC(=O)O)C(=O)N[C@@H](CC)C(=O)N[C@@H](CC(=O)O)C(=O)N[C@@H](CCCCN)C(=O)N3)NC(=O)[C@H](C(C)C)NC(=O)[C@H](CC(C)C)NC(=O)[C@H](CC(N)=O)NC(=O)[C@@H]1CCCN1C(=O)[C@H](CCCNC(=N)N)NC2=O` (Pent4ynoyl-DCLGAFRKCIPD[Abu]DKCCRPNLVCSRTHRWCKYVF-NH2; disulfide 2-17, 9-23, 16-30): the IC50 against hNav1.7 is 4 nM; against hNav1.5, greater than 10000 nM.

With `CC[C@H](C)[C@@H]1NC(=O)[C@@H]2CSSC[C@@H]3NC(=O)[C@H](C(C)C)NC(=O)[C@H](CC(C)C)NC(=O)[C@H](CC(N)=O)NC(=O)[C@@H]4CCCN4C(=O)[C@H](Cc4ccccn4)NC(=O)[C@H](CSSC[C@H](NC(=O)[C@@H](N)CC(=O)O)C(=O)N[C@@H](CC(C)C)C(=O)NCC(=O)N[C@@H](Cc4ccccc4)C(=O)N[C@@H](CCSC)C(=O)N[C@@H](CCCNC(=N)N)C(=O)N[C@@H](CCCCN)C(=O)N2)NC(=O)[C@H](CSSC[C@@H](C(=O)N[C@@H](CCCCN)C(=O)N[C@@H](Cc2ccc(O)cc2)C(=O)N[C@H](C(=O)N[C@@H](Cc2ccccc2)C(N)=O)C(C)C)NC(=O)[C@H](Cc2c[nH]c4ccccc24)NC(=O)[C@H](CCCCN)NC(=O)[C@H](Cc2cnc[nH]2)NC(=O)[C@H]([C@@H](C)O)NC(=O)[C@H](CCCNC(=N)N)NC(=O)[C@H](CO)NC3=O)NC(=O)[C@H](CCCCN)NC(=O)[C@H](CC(=O)O)NC(=O)[C@H](CC(N)=O)NC(=O)[C@H](CC(=O)O)NC(=O)[C@@H]2CCCN2C1=O` [[2PAL18]GpTx-1(1-34)] (H-DCLGFMRKCIPDNDKCC[2Pal]PNLVCSRTHKWCKYVF-NH2; disulfide 2-17, 9-23, 16-30), the IC50 amounted to 3 nM against hNav1.7 and 13700 nM against hNav1.5.
